Bounds are passed on as bounds.

Assay [1] concerns adenosine diphosphate induced platelet aggregation (human protein rich plasma). Nature of the assay: Inhibition of Platelet Aggregation - In Vitro, adenosine diphosphate induced. The format is cell-based. Further details: key: (-): Inhibition; (+): No inhibition. The text has this: (§1) It is well known that platelet aggregation inhibitors may be useful as anti-thrombotic drugs. Inhibition of platelet aggregation can be conveniently measured in vitro by monitoring changes in optical density and/or light transmission in platelet rich plasma upon addition of suitable aggregating agents such as adenosine diphosphate, epinephrine, thrombin or collagen. Alternatively, platelet aggregation can be measured in vitro using platelet rich plasma obtained at various time intervals from animals given inhibitors by an oral or parenteral route.
(§2) Human […] is incubated with modified Tyrode's solution in a proportion of 40-50% human […]. The test compounds are added at varying concentrations and after 5 minutes incubation, an aggregating agent such as adenosine diphosphate or collagen is added. The change in optical density (light transmission) is monitored by eye and inhibition is recorded as a (-) or lack of inhibition is recorded as a (+). Test compounds are considered active if they inhibit adenosine diphosphate or collagen induced aggregation at a concentration of 25 mcg/ml or less within 5-10 minutes.

Assay [2] has as its system collagen induced platelet aggregation (human protein rich plasma). As to the kind of experiment: Inhibition of Platelet Aggregation - In Vitro, collagen induced. The format is cell-based. The arrangement: key: (-): Inhibition; (+): No inhibition.
Description: as §1, §2

Assay [3] deals with bronchospasms elicited by 5-hydroxytryptamine. Nature of the assay: Bronchodilator activity against 5-hydroxytryptamine bronchospasm (Konzett procedure). The format is in vivo, guinea pigs. The settings on record: Cavia porcellus; guinea pig, three logarithmic cumulative intravenous doses. As to the method: (§3) Bronchodilator activity is determined in guinea pigs against bronchospasms elicited by intravenous injections of 5-hydroxytryptamine, histamine or acetylcholine by the Konzett procedure. [See J. Lulling, P. Lievens, F. El Sayed and J. Prignot, Arzeneimittel-Forschung, 18, 995 (1968).] In Table B bronchodilator activity for representative compounds of this invention against one or more of the three spasmogenic agents is expressed as an ED50 determined from the results obtained with three logarithmic cumulative intravenous doses.

Assay [4] has as its system bronchospasms elicited by histamine. Nature of the assay: Bronchodilator activity against histamine bronchospasm (Konzett procedure). The following applies: Cavia porcellus; guinea pig, three logarithmic cumulative intravenous doses. The format is in vivo, guinea pigs. As to the method: as §3
Assay [5] relates to bronchospasms elicited by acetylcholine. Nature of the assay: Bronchodilator activity against acetylcholine bronchospasm (Konzett procedure). The format is in vivo, guinea pigs. The following applies: Cavia porcellus; guinea pig, three logarithmic cumulative intravenous doses. Here is the method: as §3

Turning to `O=C(O)CCC/C=C\C[C@@H]1C(=O)C=C[C@H]1/C=C/C1(O)CCCCC1` (relative stereo) [nat-(and ent)-15-hydroxy-9-oxo-15,16-tetramethylene-17,18,19,20-tetranor-5-cis-10,13-trans-prostatrienoic Acid], the “Inhibition of platelet aggregation, adenosine diphosphate” value in assay [1] (drug concentration 25 μg/ml) is given as “(+)”; in assay [1] (drug concentration 250 μg/ml) it was “(-)”. Besides, the “Inhibition of platelet aggregation, collagen” value in assay [2] (drug concentration 25 μg/ml) was “(+)”; in assay [2] (drug concentration 250 μg/ml) it was “(-)”. Further, the 50% effective dose (ED50) in assay [3] was more than 3.2 µg/kg; in assay [4] it was 0.632 µg/kg; in assay [5], more than 3.2 µg/kg.

As for `N#CC1CC(=O)C(CC=CCCCC(=O)O)C1C=CC1(O)CCCCC1` (stereo not drawn) [nat(and ent)-11α/βCyano-15-hydroxy-9-ozxo-15, 16-tetramethylene-17,18,19,20-tetranor-5-cis-13-trans-prostadienoic Acid], the “Inhibition of platelet aggregation, adenosine diphosphate” value in assay [1] (drug concentration 2.5 μg/ml), in assay [1] (drug concentration 25 μg/ml) and in assay [1] (drug concentration 250 μg/ml) was “(-)” throughout. Further, the “Inhibition of platelet aggregation, collagen” value in assay [2] (drug concentration 25 μg/ml) and in assay [2] (drug concentration 250 μg/ml) was “(-)” each time. The ED50 in assay [3] stood at 1.81 µg/kg; in assay [4], 0.367 µg/kg; in assay [5], 2.74 µg/kg.

The ED50 is the dose that gives a 50% effect, or the effect in half of the subjects.

(Values after patent US4202988A, “Prostenoic acids and esters” (American Cyanamid Company, priority 1977, dated 1980).)
